Source: patent publication US12516056B2, “Compounds for inhibition of janus kinase 1” (MANKIND PHARMA LTD., priority 2019, dated 2026)

How the values were obtained:
Recombinant JAK3 = target: T1, Recombinant JAK3 (Homo sapiens, UniProt P52333); test: JAK biochemical assay (LANCE Ultra TR-FRET), JAK3; conditions: recombinant JAK3, TR-FRET; read-out: Biochemical Assay (μM) JAK3
T1 construct: purchased Carna Biosciences
T1 sequence (P52333 1-1124): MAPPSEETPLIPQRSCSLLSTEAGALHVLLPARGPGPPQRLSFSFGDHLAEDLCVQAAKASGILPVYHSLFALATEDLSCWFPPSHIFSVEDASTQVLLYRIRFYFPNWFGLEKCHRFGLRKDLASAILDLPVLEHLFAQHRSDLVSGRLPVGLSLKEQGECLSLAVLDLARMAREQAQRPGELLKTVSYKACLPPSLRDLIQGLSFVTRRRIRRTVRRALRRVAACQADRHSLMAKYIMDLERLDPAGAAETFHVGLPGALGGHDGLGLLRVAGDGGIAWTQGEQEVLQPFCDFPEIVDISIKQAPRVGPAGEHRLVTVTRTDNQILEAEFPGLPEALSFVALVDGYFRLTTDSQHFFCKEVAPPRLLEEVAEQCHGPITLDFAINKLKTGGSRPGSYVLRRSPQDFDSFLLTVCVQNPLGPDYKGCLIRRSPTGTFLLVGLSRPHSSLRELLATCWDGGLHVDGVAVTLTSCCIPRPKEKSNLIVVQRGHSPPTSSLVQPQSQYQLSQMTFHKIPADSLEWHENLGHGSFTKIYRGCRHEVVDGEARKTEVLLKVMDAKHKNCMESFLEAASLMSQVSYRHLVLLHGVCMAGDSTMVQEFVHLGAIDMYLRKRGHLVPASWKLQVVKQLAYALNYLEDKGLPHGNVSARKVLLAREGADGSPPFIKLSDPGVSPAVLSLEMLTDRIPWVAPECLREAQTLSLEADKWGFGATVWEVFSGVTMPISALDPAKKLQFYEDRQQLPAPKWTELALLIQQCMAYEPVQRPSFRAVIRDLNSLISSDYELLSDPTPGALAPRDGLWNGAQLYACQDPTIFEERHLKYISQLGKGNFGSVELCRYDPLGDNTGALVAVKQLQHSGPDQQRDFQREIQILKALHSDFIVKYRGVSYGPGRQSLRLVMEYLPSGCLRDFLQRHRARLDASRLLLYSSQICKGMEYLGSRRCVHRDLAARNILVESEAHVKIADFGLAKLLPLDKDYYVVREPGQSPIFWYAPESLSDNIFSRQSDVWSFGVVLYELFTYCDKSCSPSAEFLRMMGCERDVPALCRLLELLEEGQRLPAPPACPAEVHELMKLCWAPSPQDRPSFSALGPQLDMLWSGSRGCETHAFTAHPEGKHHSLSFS
Outline: (§1)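 % inhibition relative to vehicle was derived from TR-FRET signal proportional to ULight-substrate phosphorylation. Reactions used recombinant kinase in HEPES pH 7.5 buffer containing EGTA, MgCl2, DTT and Tween-20.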

Recombinant TYK2 = target: T2, Recombinant TYK2 (Homo sapiens, UniProt P29597); test: JAK biochemical assay (LANCE Ultra TR-FRET), TYK2; conditions: recombinant TYK2, TR-FRET; read-out: Biochemical Assay (μM) TYK2
T2 construct: purchased Carna Biosciences
Outline: as §1

[1] = test system: STAT5 phosphorylation by IL-2 in HT-2 cells; test: STAT5 phosphorylation by IL-2 in HT-2 cells (HTRF); format: cell-based; conditions: HT2, HT-2 cells, IL-2 50 U/ml, pSTAT5 HTRF; read-out: Cell Based Assay (μM) HT-2/IL-2/pSTAT5
Description: HT-2 cells were starved […] in RPMI phenol red with 10% fetal bovine serum for 4 hours in CO2 incubator maintained at 37° c. Compounds were diluted in DMSO and added to 96 well plate containing a final density of 1,20,000 cells per well. Cells and compounds are incubated for 30 minutes in CO2 incubator maintained at 37° C. and final DMSO concentration in cell based assay was 0.2%. Human recombinant cytokine, IL-2 (50 U/ml) was added to the plate containing cells and compound and incubated for 20 minutes with gentle tapping/shaking at every 5 minutes once. Compound mediated effects on STAT5 phosphorylation was measured in the lysates prepared by using CISBIO pSTAT5 detection kit by HTRF method. Background signal obtained from cells which were not activated with cytokines, was subtracted from vehicle controls and compound treated wells.

Recombinant JAK1 = target: T3, Recombinant JAK1 (Homo sapiens, UniProt P23458); test: JAK biochemical assay (LANCE Ultra TR-FRET), JAK1; conditions: recombinant JAK1, TR-FRET; read-out: Biochemical Assay (μM) JAK1
T3 construct: purchased Carna Biosciences
Outline: as §1

Recombinant JAK2 = target: T4, Recombinant JAK2 (Homo sapiens, UniProt O60674); test: JAK biochemical assay (LANCE Ultra TR-FRET), JAK2; conditions: recombinant JAK2, TR-FRET; read-out: Biochemical Assay (μM) JAK2
T4 construct: purchased Carna Biosciences
Outline: as §1

[2] = test system: STAT3 phosphorylation by IL-6 in TF-1 cells; test: JAK cellular assay: STAT3 phosphorylation by IL-6 in TF-1 cells (HTRF); format: cell-based; conditions: Homo sapiens, TF-1, TF-1 cells, IL-6 30 ng/ml, pSTAT3 HTRF; read-out: Cell Based Assay (μM) TF-1/IL-6/pSTAT3
Outline: (§2)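 TF-1 cells starved overnight in low-serum OptiMEM, then 120,000/well in RPMI, preincubated with compound 30 min at 37 °C (0.2% DMSO final). Stimulation 20 min with IL-6 30 ng/ml (pSTAT3) or GMCSF 5 ng/ml (pSTAT5); lysate phospho-STAT by HTRF, unstimulated background subtracted.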

[3] = test system: STAT5 phosphorylation by GMCSF in TF-1 cells; test: JAK cellular assay: STAT5 phosphorylation by GMCSF in TF-1 cells (HTRF); format: cell-based; conditions: Homo sapiens; TF-1 cells, GMCSF 5 ng/ml, pSTAT5 HTRF; read-out: Cell Based Assay (μM) TF-1/GMCSF/pSTAT5
Outline: as §2

T4 sequence (O60674 whole entry): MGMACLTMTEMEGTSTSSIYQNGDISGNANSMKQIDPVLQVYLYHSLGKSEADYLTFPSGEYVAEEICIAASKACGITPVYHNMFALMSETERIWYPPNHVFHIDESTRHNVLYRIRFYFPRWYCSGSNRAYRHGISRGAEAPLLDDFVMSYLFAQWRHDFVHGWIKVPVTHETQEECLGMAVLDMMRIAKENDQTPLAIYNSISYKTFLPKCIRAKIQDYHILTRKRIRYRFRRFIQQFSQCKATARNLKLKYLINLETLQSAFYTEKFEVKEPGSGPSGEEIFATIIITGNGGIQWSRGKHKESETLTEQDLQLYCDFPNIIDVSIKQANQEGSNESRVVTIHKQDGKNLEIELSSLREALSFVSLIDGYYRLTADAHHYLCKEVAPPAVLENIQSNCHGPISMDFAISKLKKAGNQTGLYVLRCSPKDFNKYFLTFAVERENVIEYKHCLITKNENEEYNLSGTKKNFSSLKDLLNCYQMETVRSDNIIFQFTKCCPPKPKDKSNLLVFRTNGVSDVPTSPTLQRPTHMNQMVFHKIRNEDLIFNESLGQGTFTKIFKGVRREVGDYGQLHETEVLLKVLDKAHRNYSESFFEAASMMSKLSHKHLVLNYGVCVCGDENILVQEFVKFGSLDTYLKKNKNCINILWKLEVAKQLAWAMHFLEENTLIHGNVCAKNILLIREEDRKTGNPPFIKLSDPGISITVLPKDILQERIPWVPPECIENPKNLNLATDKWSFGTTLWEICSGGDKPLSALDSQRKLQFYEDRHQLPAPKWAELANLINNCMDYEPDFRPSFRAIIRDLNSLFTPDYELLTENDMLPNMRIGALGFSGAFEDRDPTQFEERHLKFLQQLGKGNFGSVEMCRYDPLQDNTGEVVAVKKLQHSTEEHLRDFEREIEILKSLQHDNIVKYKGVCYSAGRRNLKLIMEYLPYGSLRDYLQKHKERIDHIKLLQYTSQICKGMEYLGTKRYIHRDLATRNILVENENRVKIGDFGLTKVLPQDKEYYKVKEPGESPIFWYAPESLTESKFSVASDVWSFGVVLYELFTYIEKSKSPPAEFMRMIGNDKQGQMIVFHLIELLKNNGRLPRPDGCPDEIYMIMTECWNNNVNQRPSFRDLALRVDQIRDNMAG
T2 sequence (P29597 whole entry): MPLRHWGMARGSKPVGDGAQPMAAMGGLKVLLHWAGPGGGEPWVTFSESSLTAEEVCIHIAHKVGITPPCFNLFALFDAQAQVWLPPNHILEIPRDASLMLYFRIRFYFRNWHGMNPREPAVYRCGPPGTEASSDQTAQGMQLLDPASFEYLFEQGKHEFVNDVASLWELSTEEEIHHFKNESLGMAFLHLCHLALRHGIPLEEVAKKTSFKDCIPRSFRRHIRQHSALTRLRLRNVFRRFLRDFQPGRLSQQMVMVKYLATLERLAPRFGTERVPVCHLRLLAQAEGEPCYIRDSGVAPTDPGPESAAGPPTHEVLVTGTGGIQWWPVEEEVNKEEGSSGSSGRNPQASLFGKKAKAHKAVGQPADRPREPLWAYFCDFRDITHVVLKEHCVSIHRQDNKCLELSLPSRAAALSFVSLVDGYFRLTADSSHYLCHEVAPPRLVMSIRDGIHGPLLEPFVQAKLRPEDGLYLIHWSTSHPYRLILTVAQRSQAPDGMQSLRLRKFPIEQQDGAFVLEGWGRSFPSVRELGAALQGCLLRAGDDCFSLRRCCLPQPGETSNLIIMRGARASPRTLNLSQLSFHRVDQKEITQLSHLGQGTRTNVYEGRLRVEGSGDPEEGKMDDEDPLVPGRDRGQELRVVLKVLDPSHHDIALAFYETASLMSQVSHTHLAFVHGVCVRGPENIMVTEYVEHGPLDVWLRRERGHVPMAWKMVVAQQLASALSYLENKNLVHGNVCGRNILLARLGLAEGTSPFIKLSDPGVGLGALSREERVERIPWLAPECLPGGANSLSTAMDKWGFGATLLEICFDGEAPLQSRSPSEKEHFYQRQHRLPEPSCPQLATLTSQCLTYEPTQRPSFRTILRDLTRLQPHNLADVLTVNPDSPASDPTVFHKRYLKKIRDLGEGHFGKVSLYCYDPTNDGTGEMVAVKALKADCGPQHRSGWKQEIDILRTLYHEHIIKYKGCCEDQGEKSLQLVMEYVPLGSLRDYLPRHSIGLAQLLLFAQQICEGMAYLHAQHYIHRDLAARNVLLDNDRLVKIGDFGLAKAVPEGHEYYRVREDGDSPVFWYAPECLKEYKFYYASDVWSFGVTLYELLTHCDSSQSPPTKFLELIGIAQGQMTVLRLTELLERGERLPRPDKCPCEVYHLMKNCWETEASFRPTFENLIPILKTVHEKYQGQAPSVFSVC
T3 sequence (P23458 whole entry): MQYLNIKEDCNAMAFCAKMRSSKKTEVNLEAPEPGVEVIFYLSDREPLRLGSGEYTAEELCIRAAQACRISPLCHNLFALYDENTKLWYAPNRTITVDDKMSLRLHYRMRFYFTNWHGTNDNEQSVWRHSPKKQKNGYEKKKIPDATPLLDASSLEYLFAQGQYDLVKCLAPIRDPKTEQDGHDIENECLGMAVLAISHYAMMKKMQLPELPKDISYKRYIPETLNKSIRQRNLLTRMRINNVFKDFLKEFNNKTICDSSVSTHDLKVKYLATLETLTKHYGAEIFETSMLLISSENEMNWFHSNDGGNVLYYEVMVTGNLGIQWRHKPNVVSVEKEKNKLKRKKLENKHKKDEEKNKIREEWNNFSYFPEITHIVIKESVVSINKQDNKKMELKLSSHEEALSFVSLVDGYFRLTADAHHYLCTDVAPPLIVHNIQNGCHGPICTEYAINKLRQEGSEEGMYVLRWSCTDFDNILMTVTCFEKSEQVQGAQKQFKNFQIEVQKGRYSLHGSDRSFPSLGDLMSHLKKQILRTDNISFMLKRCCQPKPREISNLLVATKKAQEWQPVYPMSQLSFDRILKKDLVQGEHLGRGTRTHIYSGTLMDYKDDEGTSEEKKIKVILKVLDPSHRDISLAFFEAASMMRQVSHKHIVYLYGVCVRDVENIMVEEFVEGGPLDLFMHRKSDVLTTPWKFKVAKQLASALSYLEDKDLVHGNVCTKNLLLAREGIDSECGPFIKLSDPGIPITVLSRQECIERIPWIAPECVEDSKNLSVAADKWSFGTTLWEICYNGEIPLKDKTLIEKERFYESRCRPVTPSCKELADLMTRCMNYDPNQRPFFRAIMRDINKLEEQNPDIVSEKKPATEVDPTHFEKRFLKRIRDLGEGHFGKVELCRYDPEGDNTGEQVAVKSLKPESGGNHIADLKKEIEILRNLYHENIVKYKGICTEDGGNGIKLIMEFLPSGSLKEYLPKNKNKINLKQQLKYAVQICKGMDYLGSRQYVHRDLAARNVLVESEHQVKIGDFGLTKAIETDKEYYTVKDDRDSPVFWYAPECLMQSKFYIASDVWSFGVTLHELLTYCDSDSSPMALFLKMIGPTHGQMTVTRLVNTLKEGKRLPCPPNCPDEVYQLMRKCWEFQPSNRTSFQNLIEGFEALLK

SMILES	IC50 (Recombinant JAK3)	IC50 (Recombinant TYK2)	IC50 [1]	IC50 (Recombinant JAK1)	IC50 (Recombinant JAK2)	IC50 [2]	IC50 [3]
CC(C)N1CCC([C@@](O)(c2ccc(-n3cc(-c4ccnc5[nH]cnc45)cn3)cc2)C(F)(F)F)C1 (stereo partly drawn) [Example 1252, (R)-1-(4-(4-(3H-imidazo[4,5-b]pyridin-7-yl)-1H-pyrazol-1-yl)phenyl)-2,2,2-trifluoro-1-(1-isopropylpyrrolidin-3-yl)ethanol]	< 0.1 µM	> 0.5 µM	1.63 µM	< 0.1 µM	< 0.1 µM	1.1 µM	–
CC(C)NCC[C@@H](c1ccc(-n2cc(-c3ccnc4[nH]cnc34)cn2)nc1)C(F)(F)F [Example 1207, (S)-3-(6-(4-(3H-imidazo[4,5-b]pyridin-7-yl)-1H-pyrazol-1-yl)pyridin-3-yl)-4,4,4-trifluoro-N-isopropylbutan-1-amine]	0.005 µM	> 0.5 µM	1.08 µM	0.005 µM	0.01 µM	0.43 µM	–
N#CCC(=O)NCCC(c1ccc(-n2cc(-c3ccnc4[nH]cnc34)cn2)nc1)C(F)(F)F (stereo not shown) [Example 1248, N-(3-(6-(4-(3H-imidazo[4,5-b]pyridin-7-yl)-1H-pyrazol-1-yl)pyridin-3-yl)-4,4,4-trifluorobutyl)-2-cyanoacetamide]	< 0.1 µM	> 0.5 µM	> 0.8 µM	< 0.1 µM	< 0.1 µM	> 0.75 µM	–
N#CCC(=O)NC(c1ccc(-n2cc(-c3ccnc4[nH]cnc34)cn2)nc1)C(F)(F)F (stereo not shown) [Example 1192, N-(1-(6-(4-(3H-imidazo[4,5-b]pyridin-7-yl)-1H-pyrazol-1-yl)pyridin-3-yl)-2,2,2-trifluoroethyl)-2-cyanoacetamide]	< 0.1 µM	> 1 µM	> 0.8 µM	< 0.1 µM	< 0.1 µM	> 0.8 µM	–
O=S(=O)(CC[C@@H](c1ccc(-n2cc(-c3ccnc4[nH]cnc34)cn2)nc1)C(F)(F)F)C1CC1 [Example 1216, 7-(1-(5-((S)-4-(cyclopropylsulfonyl)-1,1,1-trifluorobutan-2-yl)pyridin-2-yl)-1H-pyrazol-4-yl)-3H-imidazo[4,5-b]pyridine]	< 0.1 µM	> 0.5 µM	0.51 µM	< 0.1 µM	< 0.1 µM	0.28 µM	–
O=C(NCCC(c1ccc(-n2cc(-c3ccnc4[nH]cnc34)cn2)nc1)C(F)(F)F)C1CC1 (stereo not shown) [Example 1149, N-(3-(6-(4-(3H-imidazo[4,5-b]pyridin-7-yl)-1H-pyrazol-1-yl)pyridin-3-yl)-4,4,4-trifluorobutyl)cyclopropanecarboxamide]	< 0.1 µM	> 1 µM	> 0.5 µM	< 0.1 µM	> 0.1 µM	> 0.5 µM	–
CNC(=O)C[C@H](c1ccc(-n2cc(-c3ccnc4[nH]cnc34)cn2)nc1)C(F)(F)F [Example 1213, (R)-3-(6-(4-(3H-imidazo[4,5-b]pyridin-7-yl)-1H-pyrazol-1-yl)pyridin-3-yl)-4,4,4-trifluoro-N-methylbutanamide]	< 0.1 µM	> 0.5 µM	0.7 µM	< 0.1 µM	< 0.1 µM	0.55 µM	–
CC(C)C(=O)NCCC(c1ccc(-n2cc(-c3ccnc4[nH]cnc34)cn2)nc1)C(F)(F)F (stereo not shown) [Example 1247, N-(3-(6-(4-(3H-imidazo[4,5-b]pyridin-7-yl)-1H-pyrazol-1-yl)pyridin-3-yl)-4,4,4-trifluorobutyl)isobutyramide]	0.023 µM	0.19 µM	> 1 µM	–	0.06 µM	> 1 µM	–
CC(=O)N1CC(C(O)(c2ccc(-n3cc(-c4ccnc5[nH]cnc45)cn3)nc2)C(F)(F)F)C1 (stereo not shown) [Example 1236, 1-(3-(1-(6-(4-(3H-imidazo[4,5-b]pyridin-7-yl)-1H-pyrazol-1-yl)pyridin-3-yl)-2,2,2-trifluoro-1-hydroxyethyl)azetidin-1-yl)ethanone]	> 0.03 µM	> 0.1 µM	> 0.75 µM	–	> 0.03 µM	> 1 µM	–
N#CCc1csc(-n2cc(-c3ccnc4[nH]cnc34)cn2)n1 [Example 1076, 2-(2-(4-(3H-imidazo[4,5-b]pyridin-7-yl)-1H-pyrazol-1-yl)thiazol-4-yl)acetonitrile]	< 0.5 µM	> 1 µM	–	0.037 µM	0.085 µM	6 µM	> 10 µM
CC(C)NC(=O)CCC(c1ccc(-n2cc(-c3ccnc4[nH]cnc34)cn2)nc1)C(F)(F)F (stereo not shown) [Example 1210, 4-(6-(4-(3H-imidazo[4,5-b]pyridin-7-yl)-1H-pyrazol-1-yl)pyridin-3-yl)-5,5,5-trifluoro-N-isopropylpentanamide]	< 0.1 µM	> 1 µM	–	< 0.1 µM	< 0.1 µM	> 0.75 µM	> 1 µM
N#CC(c1ccc(-n2cc(-c3ccnc4[nH]cnc34)cn2)cc1)C1CC1 (stereo not shown) [Example 1100, 2-(4-(4-(3H-imidazo[4,5-b]pyridin-7-yl)-1H-pyrazol-1-yl)phenyl)-2-cyclopropylacetonitrile]	> 0.5 µM	> 10 µM	–	> 0.5 µM	> 0.5 µM	> 10 µM	> 10 µM
N#CCC(c1ccc(-n2cc(-c3ccnc4[nH]cnc34)cn2)nc1)C(F)(F)F (stereo not shown) [Example 1123, 3-(6-(4-(3H-imidazo[4,5-b]pyridin-7-yl)-1H-pyrazol-1-yl)pyridin-3-yl)-4,4,4-trifluorobutanenitrile]	> 0.1 µM	> 1 µM	–	> 0.1 µM	> 0.5 µM	> 1 µM	10 µM
N#CC(NC(=O)n1cc(-c2ccnc3[nH]cnc23)cn1)c1ccccc1 (stereo not shown) [Example 1070, N-(cyano(phenyl)methyl)-4-(3H-imidazo[4,5-b]pyridin-7-yl)-1H-pyrazole-1-carboxamide]	> 0.5 µM	> 0.5 µM	–	> 0.5 µM	< 0.5 µM	> 10 µM	> 10 µM
O=C(C1CC1)N1CCC(C(O)(c2ccc(-n3cc(-c4ccnc5[nH]cnc45)cn3)nc2)C(F)(F)F)CC1 (stereo not shown) [Example 1220, (4-(1-(6-(4-(3H-imidazo[4,5-b]pyridin-7-yl)-1H-pyrazol-1-yl)pyridin-3-yl)-2,2,2-trifluoro-1-hydroxyethyl)piperidin-1-yl)(cyclopropyl)methanone]	< 0.1 µM	> 0.5 µM	–	< 0.1 µM	< 0.1 µM	> 1 µM	> 1 µM
